Several values for one entry are separate records, joined by “and”; a condition that tells them apart may be missing. Identical values can stand only once.
Tests used:
Design in all cases: host or cells: CHO (tetracycline-inducible)
hASIC1a [1] = target: T1, hASIC1a (Homo sapiens, UniProt P78348); assay: cell-based; conditions: pH 6.5 agonist, QPatch 48 single hole
T1 sequence (P78348 1-528): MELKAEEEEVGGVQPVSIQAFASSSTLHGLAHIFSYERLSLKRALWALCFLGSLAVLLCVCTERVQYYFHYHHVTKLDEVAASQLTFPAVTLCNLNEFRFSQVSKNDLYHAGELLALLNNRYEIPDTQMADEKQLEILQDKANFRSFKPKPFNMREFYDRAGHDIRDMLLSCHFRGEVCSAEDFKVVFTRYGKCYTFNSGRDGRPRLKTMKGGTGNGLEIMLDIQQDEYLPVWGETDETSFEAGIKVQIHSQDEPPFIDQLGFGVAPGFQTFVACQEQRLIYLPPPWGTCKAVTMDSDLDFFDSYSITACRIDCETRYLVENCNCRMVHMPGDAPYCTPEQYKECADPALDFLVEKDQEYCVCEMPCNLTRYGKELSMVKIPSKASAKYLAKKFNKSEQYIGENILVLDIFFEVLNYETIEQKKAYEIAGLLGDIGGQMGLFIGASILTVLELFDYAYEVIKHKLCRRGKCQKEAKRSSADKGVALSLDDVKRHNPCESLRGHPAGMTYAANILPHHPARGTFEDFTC
Protocol: (§1) CHO hASIC1a cells were cultured according to vendor instructions (B-SYS GmbH) and HEK cells using standard in-house methods. Both cell lines were harvested using optimized protocols and re-suspended in serum-free media (Gibco CHO-S-SFM from Thermo Fisher Scientific for CHO cells, and Ex-Cell 302 from Merck Sigma-Aldrich for HEK cells) to obtain a suspension of cells with smooth membranes and little debris, before transfer to the automated cell hotel consisting of a 60 ml plastic container (Sophion SB2050) and a magnetic stir bar to prevent cell clumping. An aliquot of cells is then aspirated into a 1 ml microcentrifuge tube and spun down (typically 150 g for 2.5 min) and the supernatant discarded before a user-defined volume of external solution is added by the robot and the cells re-suspended to achieve the desired final cell suspension density before application to primed QPlates. Cell capture, sealing and whole-cell access was achieved using optimized QPatch protocols before currents were recorded using a holding potential of −60 mV. […] Cells were washed three times with external pH 7.3 solution (5 μl) between applications of activating acidic solution to establish a stable ASIC1a current baseline. […] Each concentration of reference compound was applied to each cell before (i.e., during each pH 7.3 application period) and during each pH stimulus (IC50 mode). Thus, each concentration of test compound was pre-incubated with cells for at least 2 min before, and then during each acidic solution challenge, before wash-off in a neutral pH 7.3 solution that contained the next concentration of the same compound. Cells were allowed at least 2 min between applications of acidic solution to enable ASIC1a receptors to recover from desensitization.
(§2) Concentration-response xC50 curves from Patchliner and QPatch 48 experiments were calculated by plotting %inhibition (antagonists) or activation (pH) data against concentration in Prism software (GraphPad), using the variable sigmoidal dose-response function to fit the Hill equation with theoretical minimum block of 0% and maximum block of 100% and a free constant for Hill slope.
In addition, this protocol is designed to avoid tachyphylaxis associated with a more acidic pH stimulus, and it allows the development of a ligand-gated ASIC1a channel assay that can distinguish between agonists, partial agonists and antagonists. […] Compounds were tested using the cumulative concentration-response assay format shown in Figure 5A, which includes a 2 min pre-incubation period for each concentration to allow test samples to reach and equilibrate with their binding site(s) in the pore or large extracellular binding domain of ASIC1 receptor trimers. Agonist effects can also be detected during this period as membrane current data is recorded after every liquid addition. […] Mean inhibition data for each test sample is plotted against Log[compound] and fit with a concentration-response function.

hASIC1a [2] = target: T1, hASIC1a; assay: QPatch 48 APC, CHO hASIC1a, multi-hole (10 hole X-plate) recordings; assay type: cell-based; conditions: multi-hole recordings, QPatch 48
Protocol: as §1, §2
Before employing a more efficient multi-hole assay it is important to establish that this variant of the APC whole-cell recording format returns the same biophysics and pharmacology as single cell recordings. To this end we ran some of the reference compounds detailed above in 10 hole “X-plate” mode on the QPatch 48.

hASIC1a [3] = target: T1, hASIC1a; assay: SyncroPatch 384i APC, CHO hASIC1a, puff / stacked puff application; assay type: cell-based; conditions: pH 6.5
Protocol: CHO cells expressing ASIC1a (Charles River) were induced using tetracycline 3–6 h prior to dissociation into a cell suspension.
For recordings of stability and pharmacology using a bolus or “puff” application of ligand, 5 μl of the agonist solution was aspirated and applied to the cell; liquid dispense speed can be set between 1 and 100 μl/s, and a setting of 40 μl/s was used in these experiments. Following agonist addition, 50 μl of the total 90 μl volume in each well is then taken up by the tip to remove most of the agonist solution from the cell. […] For stability experiments, pH 6.5 was applied to each cell followed by a wash with pH 7.4 solution and a wait of 140 s to remove agonist and reverse any desensitization, before a second application of pH 6.5 was made. This sequence was repeated 6–7 times on each cell. For pharmacology experiments, ASIC1a responses were evoked 3 times by pH 6.5 application followed by pre-incubation in the inhibitor for 140 s, after which the inhibitor was co-applied with a pH 6.5 stimulus. Cumulative concentration responses were obtained for each well using 3–4 incrementing concentrations of inhibitor. Concentration response curves for each well were constructed and mean ± S.E.M values for IC50 are given.
To assess the pH sensitivity of ASIC1a responses, pipette tips were loaded with 5 μl of pH 7.4 wash solution followed by 5 μl of activating extracellular solution (pH 7.2 to 4.8). For each sweep, the baseline current was recorded for 1 s in pH 7.4 control solution before the application of the 5-μl activating solution, and then the pH 7.4 wash solution was dispensed with a delay of 1 s to allow for recording of channel opening and desensitization in the presence of ligand before ligand wash-off. Application of the wash solution was followed by aspiration of liquid (50 μl of 90 μl total volume) from each well after a delay of 4 s, before a second wash step with pH 7.4 was performed prior to the application of the next activating pH (interval between stimuli 140 s). Each well received an addition of pH 6.5 solution followed by application of a test pH, and this sequence was repeated a second time to enable data from each cell to be normalized to the control pH 6.5 addition. The pH response curve was constructed across multiple wells with replicates of 48. Pharmacology experiments were performed as described above in “puff” application.
Concentration response curves were fit using a Hill Equation. Statistical comparison of IC50 values for Benzamil was performed using a Student’s t test in Igor Pro 8 (Wavemetrics). […] Z-Factor (Z‘) is calculated using the equation: […]

[4] = 1X single hole chip, Stacked Puff
[5] = 4X multi-hole chip, Stacked Puff

| SMILES | Hill slope (hASIC1a [1]) | Hill slope (Hn) (hASIC1a [2]) | Hill slope (hASIC1a [3]; 1X single hole chip, Puff) | Hill slope (hASIC1a [3]; [4]) | Hill slope (hASIC1a [3]; 4X multi-hole chip, Puff) | Hill slope (hASIC1a [3]; [5]) | IC50 (hASIC1a [1]; 2 min pre-incubation, read-out: IC50 potency) [nM] | IC50 (hASIC1a [2]; read-out: IC50) [nM] | IC50 (hASIC1a [3]; 1X single hole chip, Puff) [nM] | IC50 (hASIC1a [3]; [4]) [nM] | IC50 (hASIC1a [3]; 4X multi-hole chip, Puff) | IC50 (hASIC1a [3]; [5]) [nM] |
| --- | --- | --- | --- | --- | --- | --- | --- | --- | --- | --- | --- | --- |
| N=C(N)NC(=O)c1nc(Cl)c(N)nc1N [Amiloride] | 0.9 | 0.91 | 1.20 ± 0.05 | 1.39 ± 0.02 | 1.19 ± 0.02 and 1.14 ± 0.01 | 1.24 ± 0.02 |  |  |  |  |  |  |
| NC(=NCc1ccccc1)NC(=O)c1nc(Cl)c(N)nc1N [Benzamil] | 1.1 | 1.18 | 1.07 ± 0.02 | 1.26 ± 0.03 | 1.18 ± 0.03 and 1.12 ± 0.02 | 1.12 ± 0.02 | 4660 | 3490 | 1370 | 2480 ± 180 | 1430 nM and 1470 nM | 2200 ± 80 |

From article PMC9629855, “Development of ASIC1a ligand-gated ion channel drug screening assays across multiple automated patch clamp platforms” (Frontiers in Molecular Neuroscience, 2022)
